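Following 48 hours of exposure in 96-well plates, responses at five concentrations were used to interpolate endpoints linearly. GI50: concentration for 50% inhibition of growth. TGI is the concentration that stops growth completely.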
Legend:
Assay in all cases: growth of human tumour cells (NCI), 48 h
[1] = test system: OVCAR-5 ovarian
[2] = test system: UACC-257 melanoma
[3] = test system: OVCAR-8 ovarian
[4] = test system: NCI-H226 lung
[5] = test system: A498 renal
[6] = test system: SNB-75 CNS
[7] = test system: SF-539 CNS
[8] = test system: HCT-15 colon
[9] = test system: 786-0 renal
[10] = test system: TK-10 renal

SMILES | TGI [1] [µM] | TGI [2] [µM] | TGI [3] [µM] | TGI [4] [µM] | TGI [5] [µM] | TGI [6] [µM] | TGI [7] [µM] | TGI [8] [µM] | TGI [9] [µM] | TGI [10] [µM] | GI50 [1] [µM] | GI50 [2] [µM] | GI50 [4] [µM] | GI50 [5] [µM] | GI50 [6] [µM] | GI50 [7] [µM] | GI50 [8] [µM] | GI50 [10] [µM] | GI50 [3] [µM]
CN(C)CCOC(=O)COc1ccc(Cl)cc1 | > 100 | > 100 | > 100 | > 100 | > 100 | > 100 | > 100 | > 100 | > 100 | – | – | – | – | – | – | – | – | – | –
O=C(Nn1c(-c2ccccc2)nc2ccccc2c1=O)c1ccccn1 | – | > 100 | > 100 | – | > 100 | > 100 | > 100 | – | > 100 | > 100 | – | – | – | – | – | – | – | – | –
O=C(O)C(CCc1ccccn1)c1ccccc1 (stereo not given) | > 100 | > 100 | > 100 | > 100 | > 100 | > 100 | > 100 | > 100 | > 100 | > 100 | – | – | – | – | – | – | – | – | –
COc1ccc(C(O)c2ccc3c(c2)OCO3)cc1 (stereo not given) | > 100 | > 100 | > 100 | > 100 | > 100 | > 100 | > 100 | > 100 | > 100 | > 100 | – | – | – | – | – | – | – | – | –
O=C(c1ccccc1)c1c(C(F)(F)F)n([O-])c2ccccc2[n+]1=O | – | 3.5 | 3.3 | – | 4.72 | 2.74 | 5.77 | > 100 | > 100 | 3.6 | – | – | – | – | – | – | – | – | –
CCOC(=O)c1cc2c(OC(C)=O)ccc(OC(C)=O)c2s1 | 18.9 | 4.97 | 3.51 | 55 | 12.5 | 5.62 | 3.36 | 3.34 | 6.24 | 17.5 | – | – | – | – | – | – | – | – | –
Cn1c(=O)c2c(-c3ccccc3)onc2n(C)c1=O | > 100 | > 100 | > 100 | > 100 | > 100 | > 100 | > 100 | > 100 | 86.5 | 42.9 | – | – | – | – | – | – | – | – | –
CN(CCc1ccc(Cl)c(Cl)c1)[C@H]1CCCC[C@H]1N1CCCC1 | > 100 | > 100 | > 100 | > 100 | > 100 | – | – | > 100 | > 100 | > 100 | – | – | – | – | – | – | – | – | –
Cc1cccc(C(C)(C)C)c1NC(=O)/C(Cc1nc2ccc([N+](=O)[O-])cc2[nH]c1=O)=N/NC(=O)C[N+](C)(C)C | > 100 | > 100 | > 100 | > 100 | > 100 | > 100 | > 100 | > 100 | > 100 | – | – | – | – | – | – | – | – | – | –
CCCCC[C@@H]1OCO[C@@]2(C)/C=C(C)/C=C/C(=O)O[C@H]([C@@H](C)[C@@H](O)[C@H](C)[C@@]3(O)C[C@@H](O[C@H]4C[C@@H](O)[C@H](O)[C@@H](C)O4)[C@H](C)[C@@H](C)O3)[C@@H](OC)/C=C/C=C(\C)C[C@@H]1[C@@H]2O (stereo in doubt) | 0.215 | < 0.005 | 7.38 | 0.0468 | 0.0829 | 2.64 | 3.23 | 7.17 | 0.676 | 8.83 | – | – | – | – | – | – | – | – | –
COc1cc2cc(C(=O)N3CC(CCl)c4c3cc(N)c3ccccc43)[nH]c2cc1OCCN(C)C (stereo not given) | 16.3 | 16.8 | 0.0571 | 0.0224 | < 0.005 | – | – | 5.45 | – | 8.67 | – | – | – | – | – | – | – | – | –
CC(=O)O[C@H]1C#C/C=C\C#CC[C@@H]2C(=O)N(C(=O)OC(C)(C)C)[C@@H]12 | > 100 | > 100 | > 82.3 | 84.8 | > 100 | > 72.9 | 18.5 | 51.4 | 51.7 | > 100 | – | – | – | – | – | – | – | – | –
COC(=O)c1sc(=S)sc1SCc1ccccc1CSc1sc(=S)sc1C(=O)OC | > 100 | > 100 | > 100 | > 100 | > 100 | > 100 | – | > 100 | > 100 | > 100 | – | – | – | – | – | – | – | – | –
O=C1/C(=C/c2ccccc2)CCc2ccc(Cl)nc21 | 33.4 | 20.4 | > 100 | 61.9 | 34.6 | 47.5 | 15.4 | 11.4 | 21.8 | 32.7 | – | – | – | – | – | – | – | – | –
O=C1c2[nH]cc(CN3CCNCC3)c2C(=O)c2c1c(O)c1ccccc1c2O | 4.13 | – | – | 40.7 | 2.38 | 37.8 | 3.31 | 2.7 | – | 12.2 | 1.86 | 4.47 | 12.2 | 1.01 | 15.4 | 1.85 | 1.31 | 6.5 | –
Clc1nc(-[n+]2ccc(-c3ccncc3)cc2)nc(Nc2ccccc2)c1Cl | > 100 | > 100 | – | > 100 | > 100 | – | > 100 | > 100 | > 100 | > 100 | – | – | – | – | – | – | – | – | –
N#Cc1c(Nc2ccc(F)cc2)[n+]([O-])c2ccc(Cl)cc2[n+]1[O-] | – | 11.9 | > 100 | 28.8 | 8.63 | 74.6 | 7.31 | 13.3 | 27.5 | > 100 | – | – | – | – | – | – | – | – | –
CC(NC(=O)/C(=C/c1ccccc1O)NC(=O)c1ccccc1)C(=O)O (stereo not given) | > 100 | > 100 | 29.1 | 45.5 | > 100 | 31.1 | 46.4 | 80.4 | 68.1 | > 100 | – | – | – | – | – | – | – | – | –
COc1ccc(C2(c3ccc(OC)cc3)OC(=O)c3cccc4cccc2c34)cc1 | > 100 | > 100 | > 100 | > 100 | > 100 | – | 9.63 | > 100 | > 100 | 96.4 | – | – | – | – | – | – | – | – | –
CCc1nnc(-n2c(C)nc3cc(Cl)ccc3c2=O)s1 | > 100 | > 100 | > 100 | > 100 | > 100 | 92.8 | – | > 100 | 81.6 | > 100 | – | – | – | – | – | – | – | – | –
N#Cc1c(NC(=O)c2ccccc2)sc2c1CCC(=O)C2 | 4.77 | 5.49 | 45 | 12.1 | 41.2 | 6.2 | 2.59 | 2.39 | – | 28.7 | 1.25 | 1.59 | 2.75 | 8.83 | 1.64 | 0.78 | 0.395 | 1.98 | 1.27

— PubChem BioAssay (NCI)
